Literature values as cited in EP1886664A1, “N-chloroamines containing compositions” (priority 2006, dated 2008).
Like-named read-outs stand apart in the source and are kept apart here.

Tests used:
[1] = according to Buckley
[2] = system: Bacteria, Viruses, Fungi, Seaweed, Yeasts, Parasite
[3] = system: bacterial flora in the oral cavity
mouse [4] = conditions: inhalation, 4 hours, maximum reached concentration
Skin = conditions: solution under 8%
mouse [5] = conditions: after 90 days

Compound | antiseptic power compared to hypochlorites [1] | activity compared to Dakin's liquid ([1]; in the presence of blood) | biocide action ([2]; including viruses and microbacteria in the vegetative form either spori or not) | activity against microorganisms ([2]; organisms listed in the 1st table, the 2nd table and b31) | duration of antiseptic action when applied as a therapeutics ([3]; in vivo) | duration of strong sustainable effect after application ([3]; mouthrinse) | fraction still active (ambient with organic matter and microorganisms, after 24 hours) | activity lost due to decomposition (solution under 5%, opaque container, 25°C, 210 days) | decomposed (solutions under 0.5%, 30 days, 40°C) | LC 50 (mouse [4]) | Irritation, Skin (Skin) | Irritation, Eye (Eye; Solution under 0.5%) | Irritation, Eye (Eye; solution under 8%) | oral toxicity, level at which nothing was observed (mouse [5]) | sporicide, viruscide and microbacteria activity (microbacteria)
Cc1ccc(S(=O)(=O)NCl)cc1 [T-chloramine, sodium N-chloro-para-toluenesulfamide] | four times higher than that of hypochlorites | more active than the Dakin's liquid | biocide action against all forms of microorganisms | active | 24 h | at least one | approximately half | less than 0.05% | 0.01% | > 0.275 µg/mL | not irritating | not irritating | moderately irritating | 15 mg/kg/day | –
N=C(NCCCCCCNC(=N)NC(=N)Nc1ccc(Cl)cc1)NC(=N)Nc1ccc(Cl)cc1 [chlorexidine] | – | – | – | – | – | – | – | – | – | – | – | – | – | – | neither a sporicide, neither a viruscide and nor active against microbacteria
